Assay results as given in ChEMBL document CHEMBL1150761, “Additional biologically active constituents of the Chinese tallow tree (Sapium sebiferum)” (1988).
Values after ≈ are worked out from the molar mass of the structure shown.

Test system: P388
Assay: Cytotoxicity against mouse P388 cells
Format: functional
Details: read-out: ED50 (the source's name)

Row | Structure (SMILES) | EC50 [µg/mL]
1 | CC1(C)CC(O)C[C@@]2(C)OC(=O)C=C12 (stereo partly specified) | 15 (≈ 76.4 µM)
2 | O=c1c(O[C@@H]2O[C@H](CO)[C@@H](O)[C@H](O)[C@H]2O)c(-c2ccc(O)cc2)oc2cc(O)cc(O)c12 [ASTRAGALIN] | 8.2 (≈ 18.3 µM)
3 | O=C(O)c1cc(O)c(O)c(O)c1 [GALLIC ACID] | 0.7 (≈ 4.11 µM)
4 | O=c1c(O)c(-c2ccc(O)cc2)oc2cc(O)cc(O)c12 [KAEMPFEROL] | 6.7 (≈ 23.4 µM)
5 | O=c1c(O)c(-c2ccc(O)c(O)c2)oc2cc(O)cc(O)c12 [QUERCETIN] | 40 (≈ 132 µM)
6 | CC[C@H](CC[C@@H](C)[C@H]1CC[C@H]2[C@@H]3CC=C4C[C@@H](O[C@@H]5O[C@H](CO)[C@@H](O)[C@H](O)[C@H]5O)CC[C@]4(C)[C@H]3CC[C@]12C)C(C)C [SITOGLUSIDE] | 53 (≈ 91.9 µM)
